{"source": "patent US5733881A", "about": "“Opioid peptide antagonists” (Astra AB, priority 1994, dated 1998)", "origin": "cited, not measured here", "tested_on": "μ opioid receptors", "settings": "GPI assay", "data": [{"smiles": "Oc1ccc2c3c1O[C@H]1c4[nH]c5ccccc5c4C[C@@]4(O)[C@@H](C2)N(CC2CC2)CC[C@]314", "note": "[naltrindole]", "values": [{"measurement": "μ antagonist Ke", "value": 29, "unit": "nM"}]}]}
